The text below walks through data of US10188629B2, “Prodrug of green tea epigallocatechin-3-gallate (pro-EGCG) for use in the treatment of endometriosis” (The Hong Kong Polytechnic University, priority 2012, dated 2019).

Common to all, as to assay type: in vivo, mice
Data set [1] concerns endometriotic lesions (experimental endometriosis). In words: Growth of luminescent endometriotic lesions monitored weekly by IVIS bioluminescence imaging. Particulars: for lesion bioluminescence relative to baseline levels / lesion bioluminescence intensity compared with saline group: i.p. once per day, 4 weeks, EGCG, pro-EGCG 50 mg/kg; for lesion bioluminescence intensity compared with saline group: vitamin E 20 mg/kg. From the text:
Based on our previous study, an immune-compromised mouse model of experimental endometriosis was created by subcutaneous transplantation of human or mouse tissues to assess the anti-angiogenic effects and mechanisms of green tea catechin (Xu H, et al. Hum Reprod 2009; 24:608-18; Xu H, et al. Fertil Steril 2011; 96:1021-8).
In this study, endometrial tissues from eight-week-old female CMV-Luc mice (n=15) were acquired for transplantation into nonluminescent NOD-SCID mice (n=32). The mouse endometrium was obtained during the proliferating estrous stage, and biopsies 2 mm in diameter were obtained with a sterile dermal biopsy punch (Miltex, NY). The biopsies were immediately washed in prewarmed, phenol-red-free DMEM/F-12 medium (Sigma) to remove residual blood and mucus, and the samples were maintained in serum-free DMEM/F-12 medium before transplantation (Bruner-Tran K L, et al. J Clin Endocrinol Metab 2009; 94:2489-94). Cultured endometrial biopsies were randomly allocated for transplantation.
Five mouse endometrial biopsies per treatment group were implanted into a single subcutaneous pocket created is the abdominal wall of the mice along the ventral midline immediately below the umbilicus. All of the surgical procedures were performed under general anesthesia with isoflurane (Baxter, IL), and the mice were monitored until they fully recovered.
Development and angiogenesis of the experimental endometriosis were monitored using various in vivo imaging systems. During the intervention, growth of the endometriotic lesions (n=8 per group) was monitored each week by measuring the bioluminescence of the subcutaneous luciferase-positive implants using a non-invasive IVIS 200 live animal imaging system (Xenogen) as previously described (Song C, et al. Hum Gene Ther, 2011; 22:439-49). A total of 150 mg/kg of luciferin was injected intraperitoneally […] 10 mins prior to imaging. An image from each animal was captured at bin size 4 in triplicate, and the bioluminescence signal intensities were averaged for comparison.

Data set [2] deals with microvessels in the endometriotic lesions. As to the kind of experiment: Angiogenesis of endometriotic lesions by Cellvizio, microCT and CD31/αSMA immunostaining. The settings on record: after 4 weeks; for functional capillary length, density and area in the lesions compared to saline group / total vessel area in the lesions compared to saline group / total vessel length in the lesions compared to saline group / lesion neovascularization: Cellvizio; for functional capillary length, density and area in the lesions compared to saline group / total vessel area in the lesions compared to saline group / total vessel length in the lesions compared to saline group: FITC-Dextran; for lesion neovascularization / vessel volume and density in the lesions compared to saline group: microCT; for lesion neovascularization: CD31 and αSMA staining; for CD31-positively and αSMA-negatively stained new microvessel numbers compared to saline group / CD31-positively and αSMA-positively stained old microvessel numbers compared to saline group: immunostaining; for vessel volume and density in the lesions compared to saline group: Microfil. As for the experimental part:
At the end of intervention, functional angiogenesis of the endometriotic lesions (n=8 per group) was monitored by measuring the flow of fluorescence dye in the new microvessels developed in the implants using a Cellvizio® LAB LSU-488 system with a ProFlex Microprobe S1500 (Mauna Kea Technologies, Paris) as previously described (Xu H, et al. Fertil Steril 2011; 96:1021-8.). A total of 10 mg/ml of FITC-Dextran was injected intravenously into each mouse prior to imaging. Total vessel length (μm) and area (μm^2) and functional capillary length (μm^−1) and area density were measured using Cellvizio® LAB Vessel Detection software, and averaged from 4 perpendicular regions of the lesions in replicates. At the same time, apoptotic cells in the lesions were captured by Cellvizio-LAB 488 with a ProFlex MiniO/100 microprobe using Cellvizio® LAB I/C Viewer software (Mauna Kea Technologies). A total of 10 μl of 10 μM YO-PRO®-1 iodide in DSMO was injected into the lesion area.
After live animal imaging, structural angiogenesis in the endometriotic lesions (n=4 per group) was further examined by detecting the Microfil in the new microvessels developed in the implants using a VivaCT 40 μCT system (Scanco Medical, Switzerland) as previously described (Sun M H, et al. J Orthop Res. 2012; 30:137-43.). The mice were sacrificed by cervical dislocation and where immediately perfused with 4% paraformaldehyde and Microfil MV-120 Blue. Three-dimensional microvessel architecture was constructed, and absolute and relative Microfil-filled microvessel volumes were determined using the built-in software.
Paraffin sections (n=4 per group) were prepared for standard hematoxylin and eosin (H&E) staining, angiogenesis immunostaining and TUNEL staining as previously described (Xu H, et al. Hum Reprod 2009; 24:608-18.). Immunohistochemistry staining of in situ angiogenesis was performed by the immunoperoxidase method using a MACH 3 HRP Polymer Kit (Biocare Medical, Concord), and counterstained using methyl green or blue solution.
Antibodies against mouse CD31 and alpha-smooth muscle actin (αSMA) (Abcam Inc., MA) were used to double fluorescence stain the microvessels developed in the endometriotic lesions, and CD34 (Abeam Inc.) was used to stain the microvessels in the ovaries and uterus. The samples without primary antibodies served as negative controls. The total number of positively stained new and old microvessels in the lesions was counted, respectively. The mean microvessel numbers and sizes were calculated from 5 separated sections from each animal within the treatment group and are presented as numbers per lesion and μm^2 per lesion, respectively.

For data set [3], the system named is vascular endothelial growth factor (VEGF). As to the kind of experiment: VEGF concentrations in plasma and lesions by ELISA. From the text: Pharmacokinetics of EGCG and pro-EGCG in the animals were studied by measuring the corresponding EGCG and pro-EGCG concentrations (EGCG in the EGCG group, pro-EGCG in the pro-EGCG group) in plasma during the intervention and also in lesions at the end of intervention. EGCG and pro-EGCG were quantified by analytical methods as previously described (Lam W H, et al. Bioorg Med Chem. 2004; 510:69-93; Chu K O, et al. J Chromat B 2004; 810:187-95; Chu K O, et al. Anal Chim Acta 2004; 510:69-76). Anti-oxidative and anti-angiogenesis capacities of the samples were also studied by measuring oxygen radical absorbance capacity (ORAC) using a modified phycoerythrin fluorescence decay assay as previously described (Wang C C, et al. Clin Chem 2004; 50:952-4), and vascular endothelial growth factor (VEGF) concentrations were measured using a commercial ELISA kit (Uscn Life Science Inc., TX) according to the manufacturer's manual. Blood samples (n=8 per group) were collected from the tail vein once per week, and plasma was prepared by immediate centrifugation. Implants without subcutaneous and muscle layers (n=4 per group) were removed from the abdominal wall, and the endometriotic lesions were frozen. All of the samples were kept in −80° C. prior to analysis.
In general terms: In an ELISA, binding on a coated surface is turned into a signal by an enzyme label.

The test system of data set [4] is ovarian follicles, endometrial glands, ovarian and endometrial stroma microvessels. As to the kind of experiment: Reproductive effects on eutopic endometrium and ovaries (H&E, CD34 immunostaining). Particulars: H&E staining after 4-week intervention. The protocol:
Reproductive effects of EGCG and pro-EGCG on the endometrium and ovaries of each animal were also examined. After the 4-week intervention, the uterine horns and ovaries (n=8 per group) were removed and fixed for histological examination and angiogenesis immunostaining as described above. Endometrial glands, ovarian follicles and vascularization in endometrial and ovarian stroma were assessed.

Turning to `CC(=O)Oc1cc(OC(C)=O)c2c(c1)O[C@H](c1cc(OC(C)=O)c(OC(C)=O)c(OC(C)=O)c1)[C@H](OC(=O)c1cc(OC(C)=O)c(OC(C)=O)c(OC(C)=O)c1)C2` [pro-EGCG, (−)-EGCG octaacetate], the “lesion bioluminescence intensity compared with EGCG group” value in data set [1] (50 mg/kg i.p. once per day, 2nd, 3rd and 4th weeks) is “significantly lower than that of both the saline group and the EGCG group at the 2nd, 3rd and 4th weeks”. Also, in data set [1], the “lesion bioluminescence relative to baseline levels” value was “decreased further below the baseline levels”; the “lesion bioluminescence intensity compared with saline group” value was “significantly lower than that of both the saline group and the EGCG group at the 2nd, 3rd and 4th weeks”. In data set [2], the “functional capillary length, density and area in the lesions compared to saline group” value is recorded as “significantly inhibited”; the “total vessel area in the lesions compared to saline group” value is “significantly inhibited”; the “total vessel length in the lesions compared to saline group” value is reported as “significantly inhibited”; the lesion neovascularization entry was “poorly developed”. In addition, in data set [2], the “CD31-positively and αSMA-negatively stained new microvessel numbers compared to saline group” value was “significantly inhibited”; the “CD31-positively and αSMA-positively stained old microvessel numbers compared to saline group” value is reported as “significantly inhibited”; the “vessel volume and density in the lesions compared to saline group” value was “significantly inhibited”. In addition, the “all of the microvessel parameters compared with EGCG group” value in data set [2] (50 mg/kg i.p.) was “significantly lower than those in the EGCG group”. For the same compound, in data set [3] (lesions after intervention), the “VEGF concentrations in endometriotic lesions compared to saline group” value was “significantly decreased” and the “VEGF concentrations in endometriotic lesions compared with EGCG group” value was “significantly lower than those in the EGCG group”. Further, in data set [3] (plasma during intervention), the “VEGF concentrations in plasma compared to saline group” value is given as “significantly decreased” and the “VEGF concentrations in plasma compared with EGCG group” value was “significantly lower than those in the EGCG group”. In addition, in data set [4], the “effects on ovarian follicles” value is “not affected” and the “effects on uterine endometrial glands” value is reported as “not affected”.

For the compound `O=C(O[C@@H]1Cc2c(O)cc(O)cc2O[C@@H]1c1cc(O)c(O)c(O)c1)c1cc(O)c(O)c(O)c1` [EGCG, (−)-epigallocatechin-3-gallate], in data set [1], the “lesion bioluminescence relative to baseline levels” value is listed as “maintained around the baseline levels”; the “lesion bioluminescence intensity compared with saline group” value is “significantly lower than that of the saline group at the 2nd, 3rd and 4th weeks”. In data set [2], the “functional capillary length, density and area in the lesions compared to saline group” value was “significantly inhibited”; the “total vessel area in the lesions compared to saline group” value is on record as “significantly inhibited”; the “total vessel length in the lesions compared to saline group” value is “significantly inhibited”; the lesion neovascularization result is reported as “poorly developed”. Also, in data set [2], the “CD31-positively and αSMA-negatively stained new microvessel numbers compared to saline group” value is “significantly inhibited”; the “CD31-positively and αSMA-positively stained old microvessel numbers compared to saline group” value is reported as “significantly inhibited”; the “vessel volume and density in the lesions compared to saline group” value is “significantly inhibited”. For the same compound, in data set [3] (lesions after intervention), the “VEGF concentrations in endometriotic lesions compared to saline group” value is recorded as “significantly decreased”. For the same compound, the “VEGF concentrations in plasma compared to saline group” value in data set [3] (plasma during intervention) was “significantly decreased”. Also, in data set [4], the “effects on ovarian follicles” value is given as “not affected” and the “effects on uterine endometrial glands” value was “not affected”.
